Reference: patent publication US5015637A, “Pyrido[3,4-b]pyrrolo[1,2-e][1,4,5]oxadiazepines” (Hoechst-Roussel Pharmaceutical Inc., priority 1990, dated 1991)

System: Phenylquinone-Induced Writhing in Mice
Assay: Inhibition of Phenylquinone-Induced Writhing in Mice (PQW)
Assay type: in vivo, mice (male CD-1 Charles River)
Procedure: Compounds I of the present invention are also useful as analgesic agents due to their ability to alleviate pain in mammals. […] Exptl. Biol. Med., 95, 729 (1957)].
Inhibition of Phenylquinone-Induced Writhing in Mice (PQW)
A 0.125% concentration of phenyl-p-benzoquinone in a 5% aqueous solution of ethyl alcohol is administered to mice (10 mL/kg, ip). This produces a characteristic "writhe" which is defined as an inward rotation of one or more feet with twisting and turning of the trunk, drawing in of the abdominal wall, lordosis, and arching of the back. A total of 28 male CD-1 Charles River mice (18-30 g) are employed for a time-response. Animals receive food and water ad libitum during their stay in the animal quarters prior to testing. Compounds are tested at 20 mg/kg, sc and are prepared with distilled water, and if insoluble one drop of Tween-80, a surfactant, is added. Compounds are administered in a dosage volume of 10 mL/kg.
Twenty mice (five per group) are administered the test compound at various pretreat time (e.g., 15, 30, 45, and 60 min) prior to phenylquinone injection. Control animals (two per group) receive an equal volume of vehicle. After the administration of phenylquinone, the mice are placed separately into 1-L beakers, and 5 min are allowed to elapse. The mice are then observed for a period of 10 min, and the number of writhes is recorded for each animal. The formula for computing percent inhibition is [formula]
The time period with the maximum percent of inhibition is considered the peak time. A dose-response is reserved for interesting compounds or those which inhibit writhing by 70% or more. A dose-response is run in the same manner as a time-response except 10 animals per group are tested at the peak time of drug activity. Fifty animals, divided among four drug groups and one vehicle control group, are employed. The mice are normally given four doses of drug, each twice the amount of the preceding dose. An ED50 is calculated by a computer linear regression analysis.

| Compound | % Inhibition of Writhing @ 20 mg/kg, s.c. [%] | % Inhibition of Writhing (at the dose of 1.3 mg/kg, s.c. (footnote *)) [%] |
| --- | --- | --- |
| CN1c2ccncc2OCc2cccn21 [5-Methyl-5H,10H-pyrido[3,4-b]pyrrolo[1,2-e][1,4,5]-oxadiazepine] | 58 |  |
| CN1CCC(C2Oc3cnccc3N(C)n3cccc32)CC1 (stereo not drawn) [5-Methyl-10-(1-methyl-4-piperidinyl)-5H,10H-pyrido[3,4-b]pyrrolo[1,2-e][1,4,5]oxadiazepine] | 47 |  |
| CC(C)=CCN1CCC2(C)c3cc(O)ccc3CC1C2C (stereo not drawn) [Pentazocine, reference compound] |  | 50 |
